Test results taken from patent US7939052B2, “Method of measuring the biological activity of an urotensin II receptor” (priority 2005, dated 2011).
“Also recorded” adds a separate entry of the source. Residues, ends and D or L forms follow the SMILES beside them.

Tests used:
urotensin II receptor [1] = experiment: Increase in the redness or skin temperature of the rat ear after administration of the substance; assay type: in vivo; conditions: data not shown
Method: (§1) The examples described herein used conscious rat as the testing animal, although similar results were also observed from anesthetized rats. Other animals can also be utilized following similar procedures. All procedures involving animals were conducted in an animal facility fully accredited by the American Association for Assessment and Accreditation of Laboratory Animal Care (AAALAC) and in accordance with The Guide for the Care and Use of Laboratory Animals (NIH). Protocols were approved by the Internal Animal Care and Use Committee (IACUC). Results are expressed as mean±s.e. mean. Comparisons between groups were assessed using two-sided Student's t-test. P<0.05 was considered significant.
(§2) Unless otherwise indicated, Rat U-II was obtained from SIGMA (U-7507, St Louis, Mo.). Urantide was purchased from Peptide International (PUT-3639-P1, Louisville, Ky.). Experiments were performed with male, Sprague-Dawley rats (Charles River, Wilmington, Mass.), weighing 250-350 g.
(§3) Rats were acclimated at 18° C. for at least 1 hour before U-II administration. The room temperature was kept at 18° C. throughout ear surface temperature measurements. Rat U-II suspended in sterile saline (0.1 ml) at various concentrations was administered to a conscious rat via unilateral […] (i.p.) injection over a period of 5 second. In the serial dose experiment, serial doses of U-II were administered to a conscious rat via subcutaneous (s.c.) routes. The lateral inner ear surface temperature of the rat was measured using a Raytek High Performance Infra-red Thermometer (Raytek Corp., Santa Cruz, Calif.) at different time points.
(§4) Urantide (PUT-3639-P1, Peptide International) was administered or co-administered with U-II (3 μg/kg) to a rat via subcutaneous administration. The lateral inner ear surface temperature of the rat was measured using a Raytek High Performance Infra-red Thermometer at different time points, wherein the time point of Urantide administration or Urantide and U-II co-administration was marked as 0 minute.
(§5) The nitric oxide syntheses inhibitor, N^g nitro-L-arginine methylester (L-NAME), or prostacyclin inhibitor, indomethacin, was administered to the rat alone or in combination with U-II. L-NAME (N5751, Sigma, 100 mg/kg) suspended in saline was administered to a rat via […] (i.p.) administration 4 hour prior to injecting the rat with the U-II. Indomethacin (17378, Sigma, 30 mg/kg) suspended in carboxymethylcellulose was administered to a rat via p.o. (per os, L—by mouth or orally) 2 hours prior to injecting the rat with the U-II. […] The lateral inner ear surface temperature of the rat was measured using a Raytek High Performance Infra-red Thermometer at different time points, wherein the time point of U-II injection was marked as 0 minutes.

urotensin II receptor [2] = experiment: Inhibition of U-II induced increase in the redness or skin temperature of the rat ear; assay type: in vivo
Method: as §4
(§6) The nitric oxide syntheses inhibitor, N^g nitro-L-arginine methylester (L-NAME), or prostacyclin inhibitor, indomethacin, was administered to the rat alone or in combination with U-II. L-NAME (N5751, Sigma, 100 mg/kg) suspended in saline was administered to a rat via […] (i.p.) administration 4 hour prior to injecting the rat with the U-II. Indomethacin (17378, Sigma, 30 mg/kg) suspended in carboxymethylcellulose was administered to a rat via p.o. (per os, L—by mouth or orally) 2 hours prior to injecting the rat with the U-II. Dexamethasone (D1756, Sigma, 8 mg/kg) suspended in saline was administered to a rat via i.p. 2 hours prior to injecting the rat with the U-II. After taking a pre-dose or baseline ear surface temperature, 0.1 ml of U-II at various concentrations formulated in sterile normal saline was injection subcutaneously to the mid-scapular region of the rat. The lateral inner ear surface temperature of the rat was measured using a Raytek High Performance Infra-red Thermometer at different time points, wherein the time point of U-II injection was marked as 0 minutes.

[3] = rat, nicotinic acid administration; cited from earlier work
human UT receptor = molecular target: T1, human UT receptor (Homo sapiens, UniProt Q9UKP6); conditions: CHO cells over-expressing the human UT receptor; cited from earlier work
T1 construct: host or cells: CHO cells over-expressing the human UT receptor
T1 sequence (Q9UKP6 1-389): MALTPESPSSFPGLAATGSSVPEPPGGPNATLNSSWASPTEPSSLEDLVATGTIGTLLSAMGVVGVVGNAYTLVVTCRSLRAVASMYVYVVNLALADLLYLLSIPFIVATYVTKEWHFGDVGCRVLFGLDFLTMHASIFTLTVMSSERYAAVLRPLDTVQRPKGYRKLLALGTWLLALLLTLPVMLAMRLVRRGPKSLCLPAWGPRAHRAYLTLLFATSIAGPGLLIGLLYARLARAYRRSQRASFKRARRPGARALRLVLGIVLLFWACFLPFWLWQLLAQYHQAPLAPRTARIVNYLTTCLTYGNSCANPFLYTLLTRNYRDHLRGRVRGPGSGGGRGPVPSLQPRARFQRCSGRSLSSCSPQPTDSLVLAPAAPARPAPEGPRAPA

urotensin II receptor [4] = molecular target: T2, urotensin II receptor (Rattus norvegicus, UniProt P49684); experiment: Increase in the redness or skin temperature of the rat ear after administration of the substance; assay type: in vivo
T2 construct: from tissue; host or cells: whole animal: male Sprague-Dawley rats (Charles River), in vivo
T2 sequence (P49684 1-386): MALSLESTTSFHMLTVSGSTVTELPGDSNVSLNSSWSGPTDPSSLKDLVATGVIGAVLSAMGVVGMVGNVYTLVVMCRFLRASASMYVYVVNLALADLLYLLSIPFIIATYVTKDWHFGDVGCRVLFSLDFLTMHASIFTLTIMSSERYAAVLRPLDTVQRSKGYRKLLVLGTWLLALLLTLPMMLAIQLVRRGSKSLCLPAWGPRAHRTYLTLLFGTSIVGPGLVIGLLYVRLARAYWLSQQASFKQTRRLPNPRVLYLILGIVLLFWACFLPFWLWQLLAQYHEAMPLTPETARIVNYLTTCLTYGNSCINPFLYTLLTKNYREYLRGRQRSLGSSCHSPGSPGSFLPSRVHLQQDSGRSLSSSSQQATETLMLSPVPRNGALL
Method: as §1, §2, §3, §4, §5

UT receptor = molecular target: T3, UT receptor (Rattus norvegicus, UniProt P49684); conditions: competitive UT receptor antagonist, rat aorta; cited from earlier work
T3 construct: pure UT receptor antagonist in rat aorta vasoconstriction assays; host or cells: rat aorta tissue
T3 sequence (P49684 1-386): T2 sequence (P49684 1-386)

urotensin II receptor [5] = molecular target: T2, urotensin II receptor; experiment: Inhibition of U-II induced increase in the redness or skin temperature of the rat ear; assay type: in vivo; conditions: 150 μg/kg co-administered s.c. with U-II 3 μg/kg
Method: as §4, §6

[6] = tested on: panel of receptor/ion channels; experiment: Binding to a panel of receptor/ion channels; conditions: data not shown

Compound: COC(=O)[C@@H](N)CCCNC(=N)N[N+](=O)[O-] [L-NAME, N^g nitro-L-arginine methylester]
- ear flush or ear surface temperature change, substance alone (urotensin II receptor [1]; 100 mg/kg i.p.): caused no ear flush or ear surface temperature change
- effect on U-II induced ear flush or increase of ear temperature (urotensin II receptor [2]; 100 mg/kg i.p. 4 hour prior to U-II 3 μg/kg s.c., 100 mg/kg): blocked; also recorded: markedly inhibited

Compound: COc1ccc2c(c1)c(CC(=O)O)c(C)n2C(=O)c1ccc(Cl)cc1 [indomethacin]
- ear flush or ear surface temperature change, substance alone (urotensin II receptor [1]; 30 mg/kg p.o.): caused no ear flush or ear surface temperature change
- effect on U-II induced ear flush or increase of ear temperature (urotensin II receptor [2]; 30 mg/kg p.o. 2 hours prior to U-II 3 μg/kg s.c., 30 mg/kg): blocked
- effect on U-II induced ear flush or increase of ear temperature (urotensin II receptor [2]; 30 mg/kg p.o. 2 hours prior to U-II 3 μg/kg s.c., listed as Indomethacin, 30 mg/kg): abolished

Compound: O=C(O)c1cccnc1 [nicotinic acid]
- increase of the ear temperature [3]: less than 1.5 °C

Compound: CC(C)[C@H](NC(=O)[C@@H]1CSSC(C)(C)[C@H](NC(=O)[C@@H](N)CC(=O)O)C(=O)N[C@@H](Cc2ccccc2)C(=O)N[C@H](Cc2c[nH]c3ccccc23)C(=O)N[C@@H](CCCN)C(=O)N[C@@H](Cc2ccc(O)cc2)C(=O)N1)C(=O)O [urantide] (HELM PEPTIDE1{D.[Pen].F.[dW].[Orn].Y.C.V}$PEPTIDE1,PEPTIDE1,2:R3-7:R3$$$V2.0)
- activity at human UT receptor (human UT receptor): potent U-II agonist
- ear flush or ear surface temperature change, substance alone (urotensin II receptor [4]; 150 μg/kg s.c.): caused no ear flush or ear surface temperature changes
- pA2 (UT receptor): 8.3
- effect on U-II induced ear flush or increase of ear temperature (urotensin II receptor [5]): blocked
- binding activity to proteins within a panel of receptor/ion channels [6]: minimal binding activity

Compound: URP: U-II-related peptide, SEQ ID NO: 10, ACFWKYCV, intramolecular disulfide bond (PUT-4408-V, Peptide International)
- redness or skin temperature of the rat after administration (urotensin II receptor [4]; URP 100 μg/kg s.c.): induced an increase in skin temperature; also recorded: induced an increase in the redness or skin temperature
